Laboratory results: ChEMBL document CHEMBL4706518, “Discovery of MGS0274, an ester prodrug of a metabotropic glutamate receptor 2/3 agonist with improved oral bioavailability” (Eur J Med Chem, 2020)
Each block holds one molecule with its values, some of them ahead of it. Active and inactive are the calls of the source. The rule behind the calls is not given here.

How the values were obtained:
[1] = target: Glucocorticoid receptor (Homo sapiens) (UniProt P04150); experiment: Binding affinity to glucocorticoid receptor (unknown origin) 10 umol/L by radioligand binding assay; details: dose 10.0 µmol/L
[2] = target: Vasoactive intestinal polypeptide receptor 1 (Homo sapiens) (UniProt P32241); experiment: Binding affinity to VIP1 receptor (unknown origin) 10 umol/L by radioligand binding assay; details: dose 10.0 µmol/L
[3] = target: Metabotropic glutamate receptor 3 (Homo sapiens, UniProt Q14832); experiment: Agonist activity at human mGlu3 receptor expressed in CHO cell membranes by GTPgammaS binding assay relative to control; format: functional
[4] = target: Substance-K receptor (Homo sapiens) (UniProt P21452); experiment: Binding affinity to NK2 receptor (unknown origin) 10 umol/L by radioligand binding assay; details: dose 10.0 µmol/L
[5] = target: Nociceptin receptor (Homo sapiens) (UniProt P41146); experiment: Binding affinity to ORL1 receptor (unknown origin) 10 umol/L by radioligand binding assay; details: dose 10.0 µmol/L
Homo sapiens [6] = species: Homo sapiens; experiment: Binding affinity to Potassium voltage-gated channel (unknown origin) 10 umol/L by radioligand binding assay; details: dose 10.0 µmol/L
Homo sapiens [7] = species: Homo sapiens; experiment: Binding affinity to NMDA receptor glycine site (unknown origin) 10 umol/L by radioligand binding assay; details: dose 10.0 µmol/L
Homo sapiens [8] = species: Homo sapiens; experiment: Binding affinity to adenosine transporter (unknown origin) at 10 umol/L by radioligand binding assay; details: dose 10.0 µmol/L
[9] = target: Neuropeptide Y receptor type 1 (Homo sapiens) (UniProt P25929); experiment: Binding affinity to Y1 receptor (unknown origin) 10 umol/L by radioligand binding assay; details: dose 10.0 µmol/L
[10] = target: Alpha-1B adrenergic receptor (Homo sapiens) (UniProt P35368); experiment: Binding affinity to alpha1B adrenoreceptor (unknown origin) 10 umol/L by radioligand binding assay; details: dose 10.0 µmol/L
[11] = target: Sodium-dependent dopamine transporter (Homo sapiens) (UniProt Q01959); experiment: Binding affinity to dopamine transporter (unknown origin) 10 umol/L by radioligand binding assay; details: dose 10.0 µmol/L
Homo sapiens [12] = species: Homo sapiens; experiment: Binding affinity to GABAA chloride channel central (unknown origin) 10 umol/L by radioligand binding assay; details: dose 10.0 µmol/L
[13] = Lipophilicity, logD of compound in n-octanol and phosphate buffered saline at 2 mg after 1.5 hrs by HPLC based shake flask method; format: physicochemical
[14] = target: Cysteinyl leukotriene receptor 1 (Homo sapiens) (UniProt Q9Y271); experiment: Binding affinity to Leukotriene D4 receptor (unknown origin) 10 umol/L by radioligand binding assay; details: dose 10.0 µmol/L
[15] = target: Cannabinoid receptor 1 (Homo sapiens) (UniProt P21554); experiment: Binding affinity to CB1 (unknown origin) 10 umol/L by radioligand binding assay; details: dose 10.0 µmol/L
Homo sapiens [16] = species: Homo sapiens; experiment: Binding affinity to Imidazole receptor (unknown origin) 10 umol/L by radioligand binding assay; details: dose 10.0 µmol/L
[17] = target: T1, Voltage-gated L-type calcium channel (Homo sapiens, UniProt Q13936+Q13698+Q01668+O60840); experiment: Binding affinity to Voltage-dependent L-type calcium channel benzothiazepine site (unknown origin) 10 umol/L by radioligand binding assay; format: protein assay; details: 10 µM, dose 10 µmol/L
[18] = target: Muscarinic acetylcholine receptor M1 (Homo sapiens) (UniProt P11229); experiment: Binding affinity to muscarinic M1 (unknown origin) 10 umol/L by radioligand binding assay; details: dose 10.0 µmol/L
Homo sapiens [19] = species: Homo sapiens; experiment: Binding affinity to Voltage-dependent N-type calcium channel (unknown origin) 10 umol/L by radioligand binding assay; details: dose 10.0 µmol/L
Homo sapiens [20] = species: Homo sapiens; experiment: Binding affinity to GABAA receptor BZ central (unknown origin) 10 umol/L by radioligand binding assay; details: dose 10.0 µmol/L
[21] = target: Adenosine receptor A2a (Homo sapiens) (UniProt P29274); experiment: Binding affinity to A2a receptor (unknown origin) at 10 umol/L by radioligand binding assay; details: dose 10.0 µmol/L
[22] = target: B2 bradykinin receptor (Homo sapiens) (UniProt P30411); experiment: Binding affinity to B2 receptor (unknown origin) 10 umol/L by radioligand binding assay; details: dose 10.0 µmol/L
[23] = target: Histamine H1 receptor (Homo sapiens) (UniProt P35367); experiment: Binding affinity to H1 receptor (unknown origin) 10 umol/L by radioligand binding assay; details: dose 10.0 µmol/L
[24] = target: Sodium-dependent noradrenaline transporter (Homo sapiens) (UniProt P23975); experiment: Binding affinity to norepinephrine transporter (unknown origin) 10 umol/L by radioligand binding assay; details: dose 10.0 µmol/L
[25] = target: Sigma intracellular receptor 2 (Homo sapiens) (UniProt Q5BJF2); experiment: Binding affinity to sigma2 receptor (unknown origin) 10 umol/L by radioligand binding assay; details: dose 10.0 µmol/L
[26] = target: Melatonin receptor type 1A (Homo sapiens) (UniProt P48039); experiment: Binding affinity to MT1 receptor (unknown origin) 10 umol/L by radioligand binding assay; details: dose 10.0 µmol/L
Homo sapiens [27] = species: Homo sapiens; experiment: Binding affinity to NMDA receptor PCP site (unknown origin) 10 umol/L by radioligand binding assay; details: dose 10.0 µmol/L
[28] = target: T1, Voltage-gated L-type calcium channel; experiment: Binding affinity to Voltage-dependent L-type calcium channel dihydropyridine site (unknown origin) 10 umol/L by radioligand binding assay; format: protein assay; details: 10 µM, dose 10 µmol/L
[29] = target: Histamine H3 receptor (Homo sapiens) (UniProt Q9Y5N1); experiment: Binding affinity to H3 receptor (unknown origin) 10 umol/L by radioligand binding assay; details: dose 10.0 µmol/L
[30] = target: 5-hydroxytryptamine receptor 1A (Homo sapiens) (UniProt P08908); experiment: Binding affinity to 5-HT1A receptor (unknown origin) 10 umol/L by radioligand binding assay; details: dose 10.0 µmol/L
[31] = target: D(2) dopamine receptor (Homo sapiens) (UniProt P14416); experiment: Binding affinity to D2S receptor (unknown origin) 10 umol/L by radioligand binding assay; details: dose 10.0 µmol/L
[32] = target: Alpha-1A adrenergic receptor (Homo sapiens) (UniProt P35348); experiment: Binding affinity to alpha1A adrenoreceptor (unknown origin) 10 umol/L by radioligand binding assay; details: dose 10.0 µmol/L
[33] = target: Type-1 angiotensin II receptor (Homo sapiens) (UniProt P30556); experiment: Binding affinity to AT1 receptor (unknown origin) 10 umol/L by radioligand binding assay; details: dose 10.0 µmol/L
Homo sapiens [34] = species: Homo sapiens; experiment: Binding affinity to glycine receptor strychnine-sensitive binding site (unknown origin) 10 umol/L by radioligand binding assay; details: dose 10.0 µmol/L
[35] = target: Neurotensin receptor type 1 (Homo sapiens) (UniProt P30989); experiment: Binding affinity to NT1 receptor (unknown origin) 10 umol/L by radioligand binding assay; details: dose 10.0 µmol/L
[36] = target: Type-2 angiotensin II receptor (Homo sapiens) (UniProt P50052); experiment: Binding affinity to AT2 receptor (unknown origin) 10 umol/L by radioligand binding assay; details: dose 10.0 µmol/L
[37] = target: Muscarinic acetylcholine receptor M2 (Homo sapiens) (UniProt P08172); experiment: Binding affinity to muscarinic M2 (unknown origin) 10 umol/L by radioligand binding assay; details: dose 10.0 µmol/L
[38] = target: Neuropeptide Y receptor type 2 (Homo sapiens) (UniProt P49146); experiment: Binding affinity to Y2 receptor (unknown origin) 10 umol/L by radioligand binding assay; details: dose 10.0 µmol/L
[39] = target: Delta-type opioid receptor (Homo sapiens) (UniProt P41143); experiment: Binding affinity to delta opioid receptor (unknown origin) 10 umol/L by radioligand binding assay; details: dose 10.0 µmol/L
[40] = target: Adenosine receptor A1 (Homo sapiens) (UniProt P30542); experiment: Binding affinity to A1 receptor (unknown origin) at 10 umol/L by radioligand binding assay; details: dose 10.0 µmol/L
[41] = target: D(3) dopamine receptor (Homo sapiens) (UniProt P35462); experiment: Binding affinity to D3 receptor (unknown origin) 10 umol/L by radioligand binding assay; details: dose 10.0 µmol/L
[42] = target: D(1B) dopamine receptor (Homo sapiens) (UniProt P21918); experiment: Binding affinity to D5 receptor (unknown origin) 10 umol/L by radioligand binding assay; details: dose 10.0 µmol/L
Sequence of D(1B) dopamine receptor (Homo sapiens) (P21918 whole entry): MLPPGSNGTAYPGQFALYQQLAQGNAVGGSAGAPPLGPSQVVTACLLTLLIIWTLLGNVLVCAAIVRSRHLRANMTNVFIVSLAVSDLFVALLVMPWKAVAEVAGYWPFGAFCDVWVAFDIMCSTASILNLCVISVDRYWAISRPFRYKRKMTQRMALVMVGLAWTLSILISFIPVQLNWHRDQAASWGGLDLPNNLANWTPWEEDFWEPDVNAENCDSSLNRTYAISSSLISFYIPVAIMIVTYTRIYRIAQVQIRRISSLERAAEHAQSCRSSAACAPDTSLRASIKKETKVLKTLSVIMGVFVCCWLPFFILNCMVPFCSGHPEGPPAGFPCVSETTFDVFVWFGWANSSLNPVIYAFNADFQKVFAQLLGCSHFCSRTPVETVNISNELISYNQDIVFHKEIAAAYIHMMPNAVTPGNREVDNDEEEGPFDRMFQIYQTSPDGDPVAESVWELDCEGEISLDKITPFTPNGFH

Sequence of Melatonin receptor type 1A (Homo sapiens) (P48039 whole entry): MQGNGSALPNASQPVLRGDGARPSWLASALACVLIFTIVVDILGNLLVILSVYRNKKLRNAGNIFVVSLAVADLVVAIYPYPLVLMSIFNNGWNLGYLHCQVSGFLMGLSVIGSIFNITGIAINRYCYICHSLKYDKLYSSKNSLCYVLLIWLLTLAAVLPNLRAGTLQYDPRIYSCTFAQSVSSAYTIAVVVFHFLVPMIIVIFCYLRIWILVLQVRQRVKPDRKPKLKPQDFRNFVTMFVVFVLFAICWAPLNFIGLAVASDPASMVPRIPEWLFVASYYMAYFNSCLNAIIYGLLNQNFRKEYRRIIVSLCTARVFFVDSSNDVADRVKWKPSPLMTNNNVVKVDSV
Sequence of Sodium-dependent noradrenaline transporter (Homo sapiens) (P23975 whole entry): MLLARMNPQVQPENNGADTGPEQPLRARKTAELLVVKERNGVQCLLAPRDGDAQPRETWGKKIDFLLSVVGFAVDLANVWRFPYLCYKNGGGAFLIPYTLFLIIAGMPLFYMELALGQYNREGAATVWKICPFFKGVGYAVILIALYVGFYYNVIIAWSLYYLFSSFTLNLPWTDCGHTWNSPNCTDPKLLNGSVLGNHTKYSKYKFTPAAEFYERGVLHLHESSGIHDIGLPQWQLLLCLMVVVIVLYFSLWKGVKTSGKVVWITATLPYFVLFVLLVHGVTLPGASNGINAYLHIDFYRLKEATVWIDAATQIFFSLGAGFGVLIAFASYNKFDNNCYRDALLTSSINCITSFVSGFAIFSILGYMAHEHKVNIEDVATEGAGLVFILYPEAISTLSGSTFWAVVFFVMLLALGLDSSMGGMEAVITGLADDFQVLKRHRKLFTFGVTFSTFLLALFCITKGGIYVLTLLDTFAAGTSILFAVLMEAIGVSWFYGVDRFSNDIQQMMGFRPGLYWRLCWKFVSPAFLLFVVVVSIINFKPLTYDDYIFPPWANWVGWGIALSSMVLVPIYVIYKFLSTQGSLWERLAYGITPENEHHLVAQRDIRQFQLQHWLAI
Sequence of Neuropeptide Y receptor type 1 (Homo sapiens) (P25929 whole entry): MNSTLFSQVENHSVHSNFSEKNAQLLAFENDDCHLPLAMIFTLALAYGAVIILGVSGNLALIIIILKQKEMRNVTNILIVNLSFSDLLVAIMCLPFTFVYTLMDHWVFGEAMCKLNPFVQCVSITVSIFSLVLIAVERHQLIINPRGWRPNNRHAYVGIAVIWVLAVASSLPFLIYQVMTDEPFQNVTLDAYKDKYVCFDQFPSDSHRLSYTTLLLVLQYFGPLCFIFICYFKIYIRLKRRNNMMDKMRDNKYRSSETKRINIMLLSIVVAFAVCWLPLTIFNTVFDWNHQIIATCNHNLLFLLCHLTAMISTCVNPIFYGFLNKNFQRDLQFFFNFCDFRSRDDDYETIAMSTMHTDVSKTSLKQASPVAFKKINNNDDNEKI
Sequence of Histamine H3 receptor (Homo sapiens) (Q9Y5N1 whole entry): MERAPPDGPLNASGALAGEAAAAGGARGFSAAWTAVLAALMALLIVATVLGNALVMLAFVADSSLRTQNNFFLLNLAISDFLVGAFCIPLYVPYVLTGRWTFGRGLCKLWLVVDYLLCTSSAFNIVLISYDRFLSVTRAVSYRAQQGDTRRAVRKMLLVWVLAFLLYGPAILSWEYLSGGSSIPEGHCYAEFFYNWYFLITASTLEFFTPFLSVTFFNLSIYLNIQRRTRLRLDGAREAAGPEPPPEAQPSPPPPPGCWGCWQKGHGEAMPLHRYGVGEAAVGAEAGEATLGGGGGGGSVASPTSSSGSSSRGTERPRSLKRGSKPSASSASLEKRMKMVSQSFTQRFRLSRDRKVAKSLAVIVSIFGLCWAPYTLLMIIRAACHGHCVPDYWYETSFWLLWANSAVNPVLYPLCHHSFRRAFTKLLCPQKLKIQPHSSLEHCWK
Sequence of Type-1 angiotensin II receptor (Homo sapiens) (P30556 whole entry): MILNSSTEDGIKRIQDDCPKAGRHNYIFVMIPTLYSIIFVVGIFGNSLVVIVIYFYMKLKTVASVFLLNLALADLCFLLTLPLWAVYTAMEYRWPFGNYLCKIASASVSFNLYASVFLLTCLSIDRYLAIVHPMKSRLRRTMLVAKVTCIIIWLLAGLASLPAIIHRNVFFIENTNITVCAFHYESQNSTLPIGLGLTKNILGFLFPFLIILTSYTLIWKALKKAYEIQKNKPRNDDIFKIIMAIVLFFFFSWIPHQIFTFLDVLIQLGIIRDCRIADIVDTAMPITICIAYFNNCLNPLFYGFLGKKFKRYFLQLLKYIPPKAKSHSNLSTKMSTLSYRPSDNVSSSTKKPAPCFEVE
Sequence of Type-2 angiotensin II receptor (Homo sapiens) (P50052 whole entry): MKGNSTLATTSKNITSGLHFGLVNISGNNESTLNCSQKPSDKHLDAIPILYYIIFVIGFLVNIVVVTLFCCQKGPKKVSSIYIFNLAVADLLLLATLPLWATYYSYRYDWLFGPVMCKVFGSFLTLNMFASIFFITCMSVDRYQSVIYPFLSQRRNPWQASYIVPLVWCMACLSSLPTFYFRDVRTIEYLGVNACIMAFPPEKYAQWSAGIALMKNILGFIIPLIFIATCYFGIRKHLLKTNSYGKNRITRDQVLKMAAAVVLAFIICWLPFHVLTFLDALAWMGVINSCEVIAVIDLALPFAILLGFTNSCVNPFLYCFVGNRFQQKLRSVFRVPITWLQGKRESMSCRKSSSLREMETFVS
Sequence of Substance-K receptor (Homo sapiens) (P21452 whole entry): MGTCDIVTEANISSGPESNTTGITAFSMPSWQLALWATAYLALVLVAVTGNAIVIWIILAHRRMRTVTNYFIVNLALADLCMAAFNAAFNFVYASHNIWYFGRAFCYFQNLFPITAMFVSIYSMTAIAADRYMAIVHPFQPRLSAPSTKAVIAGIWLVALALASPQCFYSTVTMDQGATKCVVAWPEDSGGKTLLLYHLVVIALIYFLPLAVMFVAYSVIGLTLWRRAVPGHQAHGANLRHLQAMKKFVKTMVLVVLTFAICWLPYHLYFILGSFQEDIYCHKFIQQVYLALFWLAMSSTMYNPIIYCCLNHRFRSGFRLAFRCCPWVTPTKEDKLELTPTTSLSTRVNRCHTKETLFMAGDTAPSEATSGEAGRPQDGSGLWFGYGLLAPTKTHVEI
Sequence of Cannabinoid receptor 1 (Homo sapiens) (P21554 whole entry): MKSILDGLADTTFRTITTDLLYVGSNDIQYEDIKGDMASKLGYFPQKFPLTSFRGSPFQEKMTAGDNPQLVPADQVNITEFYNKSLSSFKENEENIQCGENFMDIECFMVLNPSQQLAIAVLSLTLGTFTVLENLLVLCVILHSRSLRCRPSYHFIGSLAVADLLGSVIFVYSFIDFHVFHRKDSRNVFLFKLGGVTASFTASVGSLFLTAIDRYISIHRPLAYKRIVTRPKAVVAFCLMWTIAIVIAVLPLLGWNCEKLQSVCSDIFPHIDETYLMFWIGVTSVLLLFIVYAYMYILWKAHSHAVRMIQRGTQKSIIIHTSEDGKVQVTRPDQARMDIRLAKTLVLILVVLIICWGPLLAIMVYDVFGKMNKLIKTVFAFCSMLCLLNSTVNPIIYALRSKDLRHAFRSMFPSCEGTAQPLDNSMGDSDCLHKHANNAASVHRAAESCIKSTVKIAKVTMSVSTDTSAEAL
Sequence of 5-hydroxytryptamine receptor 1A (Homo sapiens) (P08908 whole entry): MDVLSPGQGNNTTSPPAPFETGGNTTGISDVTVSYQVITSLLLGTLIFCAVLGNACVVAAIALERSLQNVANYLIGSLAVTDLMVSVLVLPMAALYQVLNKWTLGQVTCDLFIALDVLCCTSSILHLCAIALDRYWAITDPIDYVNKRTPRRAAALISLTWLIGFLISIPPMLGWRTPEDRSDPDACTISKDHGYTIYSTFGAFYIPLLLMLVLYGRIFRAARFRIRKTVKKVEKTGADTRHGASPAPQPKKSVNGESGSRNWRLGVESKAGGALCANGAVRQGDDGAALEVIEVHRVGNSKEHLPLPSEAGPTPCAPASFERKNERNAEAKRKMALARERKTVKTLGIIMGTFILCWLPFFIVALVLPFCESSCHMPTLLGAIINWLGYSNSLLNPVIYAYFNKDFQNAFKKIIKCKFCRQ
Sequence of Alpha-1B adrenergic receptor (Homo sapiens) (P35368 whole entry): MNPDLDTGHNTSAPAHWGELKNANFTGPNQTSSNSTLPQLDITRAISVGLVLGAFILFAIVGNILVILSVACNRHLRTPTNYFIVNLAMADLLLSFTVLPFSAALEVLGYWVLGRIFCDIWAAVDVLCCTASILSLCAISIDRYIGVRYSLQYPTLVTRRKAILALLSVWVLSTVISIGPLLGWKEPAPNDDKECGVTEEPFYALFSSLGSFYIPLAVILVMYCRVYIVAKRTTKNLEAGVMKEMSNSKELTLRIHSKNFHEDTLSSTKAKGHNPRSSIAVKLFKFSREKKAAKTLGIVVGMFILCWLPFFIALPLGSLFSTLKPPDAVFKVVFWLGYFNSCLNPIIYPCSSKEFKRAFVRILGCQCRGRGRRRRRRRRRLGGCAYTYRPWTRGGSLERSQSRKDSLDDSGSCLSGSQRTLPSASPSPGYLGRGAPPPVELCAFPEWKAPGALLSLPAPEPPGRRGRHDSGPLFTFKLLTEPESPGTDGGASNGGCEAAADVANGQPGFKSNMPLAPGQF

- Activity [1]: inactive
- Activity [2]: inactive
- Emax ([3]; Cell membrane, filed as agonist): 102%
- Activity [4]: inactive
- Activity [5]: inactive
- Activity (Homo sapiens [6]): inactive
- Activity (Homo sapiens [7]): inactive
- Activity (Homo sapiens [8]): inactive
- Activity [9]: inactive
- Activity [10]: inactive
- Activity [11]: inactive
- Activity (Homo sapiens [12]): inactive
- logD ([13]; 1.5 h): -4.02
- Activity [14]: inactive
- Activity [15]: inactive
- Activity (Homo sapiens [16]): inactive
- Activity [17]: Not Active
- Activity [18]: inactive
- Activity (Homo sapiens [19]): inactive
- Activity (Homo sapiens [20]): inactive
- Activity [21]: inactive
- Activity [22]: inactive
- Activity [23]: inactive
- Activity [24]: inactive
- Activity [25]: inactive
- Activity [26]: inactive
- Activity (Homo sapiens [27]): inactive
- Activity [28]: Not Active
- Activity [29]: inactive
- Activity [30]: inactive
- Activity [31]: inactive
- Activity [32]: inactive
- Activity [33]: inactive
- Activity (Homo sapiens [34]): inactive
- Activity [35]: inactive
- Activity [36]: inactive
- Activity [37]: inactive
- Activity [38]: inactive
- Activity [39]: inactive
- Activity [40]: inactive
- Activity [41]: inactive
- Activity [42]: inactive
SMILES: N[C@]1(C(=O)O)[C@H]2[C@@H](C[C@@H]1F)[C@@H]2C(=O)O

- Activity [1]: inactive
- Activity [2]: inactive
- EC50 [3]: > 30 µM
- Activity [4]: inactive
- Activity [5]: inactive
- Activity (Homo sapiens [6]): inactive
- Activity (Homo sapiens [7]): inactive
- Activity (Homo sapiens [8]): inactive
- Activity [9]: inactive
- Activity [10]: inactive
- Activity [11]: inactive
- Activity (Homo sapiens [12]): inactive
- logD at 1.5 h ([13]; n-octanol/phosphate buffered saline): > 2.04
- Activity [14]: inactive
- Activity [15]: inactive
- Activity (Homo sapiens [16]): inactive
- Activity [17]: Not Active
- Activity [18]: inactive
- Activity (Homo sapiens [19]): inactive
- Activity (Homo sapiens [20]): inactive
- Activity [21]: inactive
- Activity [22]: inactive
- Activity [23]: inactive
- Activity [24]: inactive
- Activity [25]: inactive
- Activity [26]: inactive
- Activity (Homo sapiens [27]): inactive
- Activity [28]: Not Active
- Activity [29]: inactive
- Activity [30]: inactive
- Activity [31]: inactive
- Activity [32]: inactive
- Activity [33]: inactive
- Activity (Homo sapiens [34]): inactive
- Activity [35]: inactive
- Activity [36]: inactive
- Activity [37]: inactive
- Activity [38]: inactive
- Activity [39]: inactive
- Activity [40]: inactive
- Activity [41]: inactive
- Activity [42]: inactive
SMILES: CC(C)[C@@H]1CC[C@@H](C)C[C@H]1OC(=O)O[C@@H](C)OC(=O)[C@H]1[C@@H]2C[C@H](F)[C@@](N)(C(=O)O)[C@@H]21
